Source: patent publication US20090018134A1, “Compounds - 945” (AstraZeneca AB, priority 2007, published 2009)

biological target: T1, mTOR (Homo sapiens, UniProt P42345); assay: In Vitro mTOR Kinase Assay (Echo), Test (a)(ii); type: biochemical; conditions: table of enzyme assay Test (a)(ii); read-out: Test (a)(ii) IC50
T1 construct: FLAG; made in house
Procedure, shortened: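 FLAG-tagged truncated mTOR (residues 1362-2549), expressed in HEK293 and purified via the FLAG tag, phosphorylated a biotinylated peptide over 2 hours at room temperature. EDTA stopped the reaction. Phospho-T389 was detected overnight by AlphaScreen using the p70 S6K T389 antibody with Protein A/streptavidin beads; IC50 reported.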

T1 sequence (P42345 1362-2549): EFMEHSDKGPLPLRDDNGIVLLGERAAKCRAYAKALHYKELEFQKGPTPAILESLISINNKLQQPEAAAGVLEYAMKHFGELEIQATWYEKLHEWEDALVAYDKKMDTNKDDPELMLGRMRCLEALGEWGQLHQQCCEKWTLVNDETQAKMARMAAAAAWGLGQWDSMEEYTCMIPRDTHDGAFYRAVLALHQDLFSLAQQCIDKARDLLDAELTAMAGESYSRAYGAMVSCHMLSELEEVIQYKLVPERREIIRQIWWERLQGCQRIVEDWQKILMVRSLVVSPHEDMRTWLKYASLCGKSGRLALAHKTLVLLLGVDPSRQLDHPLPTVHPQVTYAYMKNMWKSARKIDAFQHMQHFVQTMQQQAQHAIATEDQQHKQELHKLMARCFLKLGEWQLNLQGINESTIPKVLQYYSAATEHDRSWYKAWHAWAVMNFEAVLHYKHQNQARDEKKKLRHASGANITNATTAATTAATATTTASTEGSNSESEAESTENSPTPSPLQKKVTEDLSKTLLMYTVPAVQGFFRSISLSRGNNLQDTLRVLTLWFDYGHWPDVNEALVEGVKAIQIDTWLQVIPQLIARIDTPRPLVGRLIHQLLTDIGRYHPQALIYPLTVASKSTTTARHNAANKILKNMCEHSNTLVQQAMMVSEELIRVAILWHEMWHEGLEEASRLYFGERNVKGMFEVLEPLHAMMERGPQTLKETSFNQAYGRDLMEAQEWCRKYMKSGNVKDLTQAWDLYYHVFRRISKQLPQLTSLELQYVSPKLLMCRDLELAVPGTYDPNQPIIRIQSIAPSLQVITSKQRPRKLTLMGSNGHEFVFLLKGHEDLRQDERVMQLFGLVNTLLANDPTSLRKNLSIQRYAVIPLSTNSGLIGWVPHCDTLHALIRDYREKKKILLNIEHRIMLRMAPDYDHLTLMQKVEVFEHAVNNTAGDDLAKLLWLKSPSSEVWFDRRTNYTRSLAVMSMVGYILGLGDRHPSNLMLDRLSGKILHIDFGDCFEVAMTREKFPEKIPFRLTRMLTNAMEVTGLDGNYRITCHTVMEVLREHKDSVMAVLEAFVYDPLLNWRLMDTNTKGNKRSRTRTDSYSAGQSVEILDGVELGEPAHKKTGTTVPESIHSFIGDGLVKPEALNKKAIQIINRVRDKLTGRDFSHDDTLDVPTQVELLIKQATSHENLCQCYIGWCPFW

| Compound | IC50 |
| --- | --- |
| C[C@H]1COCCN1c1cc(C2(S(=O)(=O)c3ccc(OC(F)F)cc3)CC2)nc(-c2ccc(NC(=O)Nc3cnn(C)c3)cc2)n1 [Example 64d, 1-[4-[4-[1-[4-(difluoromethoxy)phenyl]sulfonyl-cyclopropyl]-6-[(3S)-3-methylmorpholin-4-yl]pyrimidin-2-yl]phenyl]-3-(1-methylpyrazol-4-yl)urea] | 6.7 nM |
| C[C@H]1COCCN1c1cc(C2(S(=O)(=O)c3ccc(OC(F)F)cc3)CC2)nc(-c2ccc(NC(=O)NCCF)cc2)n1 [Example 64e, 1-[4-[4-[1-[4-(difluoromethoxy)phenyl]sulfonyl-cyclopropyl]-6-[(3S)-3-methylmorpholin-4-yl]pyrimidin-2-yl]phenyl]-3-(2-fluoroethyl)urea] | 5.37 nM |
| C[C@H]1COCCN1c1cc(C2(S(=O)(=O)c3ccc(OC(F)F)cc3)CC2)nc(-c2ccc(NC(=O)NCC(F)F)cc2)n1 [Example 64f, 3-(2,2-difluoroethyl)-1-[4-[4-[1-[4-(difluoromethoxy)phenyl]sulfonyl-cyclopropyl]-6-[(3S)-3-methylmorpholin-4-yl]pyrimidin-2-yl]phenyl]urea] | 5.21 nM |
| CNC(=O)Nc1ccc(-c2nc(N3CCOC[C@@H]3C)cc(C3(S(=O)(=O)c4ccc(F)c(F)c4)CC3)n2)cc1 [Example 64g, 1-[4-[4-[1-(3,4-difluorophenyl)sulfonylcyclopro-pyl]-6-[(3S)-3-methylmorpholin-4-yl]pyrimidin-2-yl]phenyl]-3-methylurea] | 34.2 nM |
| CCNC(=O)Nc1ccc(-c2nc(N3CCOC[C@@H]3C)cc(C3(S(=O)(=O)c4ccc(F)c(F)c4)CC3)n2)cc1 [Example 64h, 3-[4-[4-[1-(3,4-difluorophenyl)sulfonylcyclopro-pyl]-6-[(3S)-3-methylmorpholin-4-yl]pyrimidin-2-yl]phenyl]-1-ethylurea] | 1.48 nM |
| C[C@H]1COCCN1c1cc(C2(S(=O)(=O)c3ccc(F)c(F)c3)CC2)nc(-c2ccc(NC(=O)NC3CC3)cc2)n1 [Example 64i, 3-cyclopropyl-1-[4-[4-[1-(3,4-difluorophenyl)sulfonylcyclopro-pyl]-6-[(3S)-3-methylmorpholin-4-yl]pyrimidin-2-yl]phenyl]urea] | 1.35 nM |
| C[C@H]1COCCN1c1cc(C2(S(=O)(=O)c3ccc(F)c(F)c3)CC2)nc(-c2ccc(NC(=O)NCCO)cc2)n1 [Example 64j, 1-[4-[4-[1-(3,4-difluorophenyl)sulfonylcyclopro-pyl]-6-[(3S)-3-methylmorpholin-4-yl]pyrimidin-2-yl]phenyl]-3-(2-hydroxyethyl)urea] | 1.2 nM |
| C[C@H]1COCCN1c1cc(C2(S(=O)(=O)c3ccc(F)c(F)c3)CC2)nc(-c2ccc(NC(=O)Nc3cnn(C)c3)cc2)n1 [Example 64k, 1-[4-[4-[1-(3,4-difluorophenyl)sulfonylcyclopro-pyl]-6-[(3S)-3-methylmorpholin-4-yl]pyrimidin-2-yl]phenyl]-3-(1-methylpyrazol-4-yl)urea] | 1.44 nM |
| C[C@H]1COCCN1c1cc(C2(S(=O)(=O)c3ccc(F)c(F)c3)CC2)nc(-c2ccc(NC(=O)NCCF)cc2)n1 [Example 64l, 1-[4-[4-[1-(3,4-difluorophenyl)sulfonylcyclopro-pyl]-6-[(3S)-3-methylmorpholin-4-yl]pyrimidin-2-yl]phenyl]-3-(2-fluoroethyl)urea] | 1.11 nM |
| C[C@H]1COCCN1c1cc(C2(S(=O)(=O)c3ccc(F)c(F)c3)CC2)nc(-c2ccc(NC(=O)NCC(F)F)cc2)n1 [Example 64m, 3-(2,2-difluoroethyl)-1-[4-[4-[1-(3,4-difluorophenyl)sulfonylcyclo-propyl]-6-[(3S)-3-methylmorpholin-4-yl]pyrimidin-2-yl]phenyl]urea] | 40.8 nM |
| C[C@H]1COCCN1c1cc(C2(S(=O)(=O)c3ccc(NCCO)c(F)c3)CC2)nc(-c2ccc(NC(=O)NCCO)cc2)n1 [Example 64n, 1-[4-[4-[1-[3-fluoro-4-(2-hydroxyethylamino)phenyl]sulfon-ylcyclopropyl]-6-[(3S)-3-methylmorpholin-4-yl]pyrimidin-2-yl]phenyl]-3-(2-hydroxyethyl)urea] | 16.1 nM |
| C[C@H]1COCCN1c1cc(C2(S(=O)(=O)c3ccccc3)CCC2)nc(-c2ccc(NC(=O)NC(C)(C)CO)cc2)n1 [Example 64o, 1-[4-[4-[1-(benzenesulfonyl)cyclobutyl]-6-[(3S)-3-methylmorpholin-4-yl]pyrimidin-2-yl]phenyl]-3-(1-hydroxy-2-methylpropan-2-yl)urea] | 3.45 nM |
| C[C@@H](CO)NC(=O)Nc1ccc(-c2nc(N3CCOC[C@@H]3C)cc(C3(S(=O)(=O)c4ccccc4)CCC3)n2)cc1 [Example 64p, 1-[4-[4-[1-(benzenesulfonyl)cyclobutyl]-6-[(3S)-3-methylmorpholin-4-yl]pyrimidin-2-yl]phenyl]-3-[(2S)-1-hydroxypropan-2-yl]urea] | 3.98 nM |
| C[C@H](CO)NC(=O)Nc1ccc(-c2nc(N3CCOC[C@@H]3C)cc(C3(S(=O)(=O)c4ccccc4)CCC3)n2)cc1 [Example 64q, 1-[4-[4-[1-(benzenesulfonyl)cyclobutyl]-6-[(3S)-3-methylmorpholin-4-yl]pyrimidin-2-yl]phenyl]-3-[(2R)-1-hydroxypropan-2-yl]urea] | 4.67 nM |
| C[C@H]1COCCN1c1cc(C2(S(=O)(=O)c3ccccc3)CCC2)nc(-c2ccc(NC(=O)NCCCO)cc2)n1 [Example 64r, 1-[4-[4-[1-(benzenesulfonyl)cyclobutyl]-6-[(3S)-3-methylmorpholin-4-yl]pyrimidin-2-yl]phenyl]-3-(3-hydroxypropyl)urea] | 4.18 nM |
| C[C@H]1COCCN1c1cc(C2(S(=O)(=O)c3ccccc3)CCC2)nc(-c2ccc(NC(=O)NCCF)cc2)n1 [Example 64s, 1-[4-[4-[1-(benzenesulfonyl)cyclobutyl]-6-[(3S)-3-methylmorpholin-4-yl]pyrimidin-2-yl]phenyl]-3-(2-fluoroethyl)urea] | 2.96 nM |
| C[C@H]1COCCN1c1cc(C2(S(=O)(=O)C3CC3)CC2)nc(-c2ccc(NC(=O)NCCF)cc2)n1 [Example 64t, 1-[4-[4-(1-cyclopropylsulfonylcyclopropyl)-6-[(3S)-3-methylmorpholin-4-yl]pyrimidin-2-yl]phenyl]-3-(2-fluoroethyl)urea] | 11.4 nM |
| C[C@H]1COCCN1c1cc(C2(S(=O)(=O)C3CC3)CC2)nc(-c2ccc(NC(=O)NCC(F)F)cc2)n1 [Example 64u, 1-[4-[4-(1-cyclopropylsulfonylcyclopropyl)-6-[(3S)-3-methylmorpholin-4-yl]pyrimidin-2-yl]phenyl]-3-(2,2-difluoroethyl)urea] | 13.9 nM |
| C[C@H]1COCCN1c1cc(C2(S(=O)(=O)C3CC3)CC2)nc(-c2ccc(NC(=O)NCc3ncc[nH]3)cc2)n1 [Example 64v, 1-[4-[4-(1-cyclopropylsulfonylcyclopropyl)-6-[(3S)-3-methylmorpholin-4-yl]pyrimidin-2-yl]phenyl]-3-(1H-imidazol-2-ylmethyl)urea] | 146 nM |
| C[C@H]1COCCN1c1cc(C2(S(=O)(=O)C3CC3)CCC2)nc(-c2ccc(NC(=O)NC(C)(C)CO)cc2)n1 [Example 64w, 1-[4-[4-(1-cyclopropylsulfonylcyclobutyl)-6-[(3S)-3-methylmorpholin-4-yl]pyrimidin-2-yl]phenyl]-3-(1-hydroxy-2-methylpropan-2-yl)urea] | 16.1 nM |
